The text below walks through data of patent publication US20100200049A1, “BIOHYBRID SYSTEM FOR HYDROGEN PRODUCTION” (Alliance for Sustainable Energy, LLC, priority 2008, published 2010).

In test [1] the target is T1, PS II (Thermosynechococcus vestitus, UniProt P0A444).
T1 construct: PS II complexes were isolated from Thermosynechococcus elongatus; from tissue; host or cells: Thermosynechococcus elongatus cells (photosynthetic membranes); method of Schatz and Witt 1984 with modifications
The experiment in a line: Photocurrent of PGE-PS II electrode with soluble electron mediator. In kind it is biochemical, Thermosynechococcus elongatus. Conditions: DMBQ 60 μM vs no mediator; +0.4 V vs Ag/AgCl; red light 660 nm, 10 s light/40 s dark. The procedure: (§1) PS II complexes were isolated from Thermosynechococcus elongatus according to methods described by Schatz and Witt (1984, Extraction and characterisation of oxygen-evolving Photosystem II complexes from a thermophilic cyanobacterium Synechococcus sp. Photobiochem. Photobiophys. 7: 1-14) with modifications.
(§2) The PS II electrode was prepared by depositing 5 μl of 1 mM isolated PS II complex preparation onto the electrode in almost complete darkness, with a weak non-actinic green light present, and dried overnight at +4° C. in darkness. A pyrolytic graphite edge (PGE) electrode with a diameter of 4.8 mm or a glassy carbon (GC) electrode with a diameter of 3 mm was used. Directly before the experiment, the surface of the electrode containing dried PS II sample was covered with a dialysis membrane (12000-14000 MW cutoff) that was held in place by o-ring.
A 50 mM stock solution of DMBQ in ethanol was prepared fresh before the experiment and used as an electron mediator for PS II in various concentrations. […]

Test [2] concerns the target T1, PS II. The experiment in a line: Photocurrent of GC-PS II electrode wired to hydrogenase electrode, with DCMU added. In kind it is biochemical, Thermosynechococcus elongatus. Particulars: 5 μM and 10 μM DCMU in working solution; red light 660 nm, 10 s light/40 s dark; all oxidizing potentials tested (+0.2 to +1.0 V). On the procedure: as §1, §2
The photocurrent was generated by illumination of the PS II electrode by red LED (660 nm) or white LED. The following light/dark cycle was used: 10 s light, 40 s dark, unless specified otherwise.
The experiments in which the PS II electrode was tested by addition of DCMU were performed using the GC-PS II electrode, wired to a 4.8 mm diameter PGE-hydrogenase electrode. […]

Structures are written as SMILES.

As for `CC1=CC(=O)C=C(C)C1=O` [DMBQ, 2,6-dimethyl 1,4-benzoquinone], the “effect on amplitude of photocurrent generated by the PS II electrode” value at PS II [1] was “dramatically improved the amplitude of photocurrent”.
With `CN(C)C(=O)Nc1ccc(Cl)c(Cl)c1` [DCMU], the “effect on generation of photocurrent by the PS II electrode” value at PS II [2] is “inhibited the generation of photocurrent”.
